According to ChEMBL document CHEMBL5241054, “Effective anti-aromatase therapy to battle against estrogen-mediated breast cancer: Comparative SAR/QSAR assessment on steroidal aromatase inhibitors” (Eur J Med Chem, 2020):
Values joined by “and” are separate entries in the source; they are usually repeats but may differ in a detail not shown here. Equal values may be shown once.

What was measured:
Aromatase [1] = biological target: T1, Aromatase (Homo sapiens, UniProt P11511)
T1 sequence (P11511 whole entry): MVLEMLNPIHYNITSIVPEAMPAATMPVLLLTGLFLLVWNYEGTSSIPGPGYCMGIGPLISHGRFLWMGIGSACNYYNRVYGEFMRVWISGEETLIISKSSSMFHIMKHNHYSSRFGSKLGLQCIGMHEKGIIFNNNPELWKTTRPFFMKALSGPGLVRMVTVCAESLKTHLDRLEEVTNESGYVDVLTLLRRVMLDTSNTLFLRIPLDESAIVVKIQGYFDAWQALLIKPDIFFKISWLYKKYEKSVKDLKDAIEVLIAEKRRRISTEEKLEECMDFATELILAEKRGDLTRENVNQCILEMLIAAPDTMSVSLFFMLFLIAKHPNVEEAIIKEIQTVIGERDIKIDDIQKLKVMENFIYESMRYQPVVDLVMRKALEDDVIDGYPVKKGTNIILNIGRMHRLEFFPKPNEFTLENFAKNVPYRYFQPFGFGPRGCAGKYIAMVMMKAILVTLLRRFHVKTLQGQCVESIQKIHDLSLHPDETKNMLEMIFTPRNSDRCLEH

Aromatase [2] = biological target: T1, Aromatase; remark: listed apart in the source
Aromatase [3] = biological target: T1, Aromatase; remark: listed apart in the source
Aromatase [4] = biological target: T1, Aromatase; assay: Binding affinity to aromatase (unknown origin) assessed as change in gibbs free energy

Compound | IC50 (Aromatase [1]) | IC50 (Aromatase [2]) [nM] | pIC50 (Aromatase [3]) | deltaG (Aromatase [4]) [kcal/mol]
C[C@@H]1C[C@@]2(C)C(=CC1=O)CC[C@@H]1[C@@H]2CC[C@]2(C)C(=O)CC[C@@H]12 | 250 nM and 460 nM | 460 | – | –
C[C@]12C=CC(=O)C=C1C[C@@H](Cc1ccccc1)[C@@H]1[C@@H]2CC[C@]2(C)C(=O)CC[C@@H]12 | 232 nM | 19.2 | – | –
C[C@]12CCC(=O)C=C1C=C(CCc1ccccc1)[C@@H]1[C@@H]2CC[C@]2(C)C(=O)CC[C@@H]12 | 661 nM | 174 | – | –
C[C@]12C=CC(=O)C=C1C[C@@H](CCCc1ccc([N+](=O)[O-])cc1)[C@@H]1[C@@H]2CC[C@]2(C)C(=O)CC[C@@H]12 | 12.9 nM | 75.7 | – | –
C[C@]12C=CC(=O)C=C1C[C@@H](CCCc1ccccc1)[C@@H]1[C@@H]2CC[C@]2(C)C(=O)CC[C@@H]12 | 7.69 nM | 63.7 | – | –
C[C@]12C=CC(=O)C=C1CC[C@@H]1[C@@H]2CC[C@]2(C)C3=NN(c4ccccc4)[C@H](c4ccccc4)[C@H]3C[C@@H]12 | 1980 nM | – | – | –
C[C@]12C=CC(=O)C=C1C[C@@H](CCc1ccccc1)[C@@H]1[C@@H]2CC[C@]2(C)C(=O)CC[C@@H]12 | 16.7 nM | 155 | – | –
C[C@]12CCC(=O)C=C1C=C(Cc1ccccc1)[C@@H]1[C@@H]2CC[C@]2(C)C(=O)CC[C@@H]12 | 600 nM | 61 | – | –
C[C@]12CCC(=O)C=C1C=C(CCc1ccc([N+](=O)[O-])cc1)[C@@H]1[C@@H]2CC[C@]2(C)C(=O)CC[C@@H]12 | 4500 nM | 95.1 | – | –
C[C@]12CCC(=O)C=C1C=C(Cc1ccc([N+](=O)[O-])cc1)[C@@H]1[C@@H]2CC[C@]2(C)C(=O)CC[C@@H]12 | 929 nM | 94 | – | –
C/C=C1\CC[C@@]2(C)[C@@H](CC[C@@H]3[C@@H]2CC[C@]2(C)C4=NN(C)[C@H](c5ccccc5)[C@H]4C[C@@H]32)C1 | 3510 nM | – | – | –
C[C@]12CCC(=O)C=C1C=C(CCc1ccc(N)cc1)[C@@H]1[C@@H]2CC[C@]2(C)C(=O)CC[C@@H]12 | 1250 nM | 87.9 | – | –
C[C@]12C=CC(=O)C=C1CC[C@@H]1[C@@H]2CC[C@]2(C)C(=O)C(Br)C[C@@H]12 (stereo not given in full) | 13200 nM | – | – | –
CC(=O)O[C@H]1[C@@H](n2ccnc2)C[C@H]2[C@@H]3CC=C4C[C@@H](N5CCCC5)CC[C@]4(C)[C@H]3CC[C@@]21C | 4900 nM | – | – | –
C/C=C1\CC[C@@]2(C)[C@@H](CC[C@@H]3[C@@H]2CC[C@]2(C)C4=NN(C)[C@H](c5ccc(OC)cc5)[C@H]4C[C@@H]32)C1 | 3400 nM | – | – | –
C/C=C1\CC[C@@]2(C)[C@@H](CC[C@@H]3[C@@H]2CC[C@]2(C)C4=NN(c5ccccc5)[C@H](c5ccccc5)[C@H]4C[C@@H]32)C1 | 3340 nM | – | – | –
C/C=C1\CC[C@@]2(C)[C@@H](CC[C@@H]3[C@@H]2CC[C@]2(C)C4=NN(c5ccccc5)[C@H](c5ccc(OC)cc5)[C@H]4C[C@@H]32)C1 | 3230 nM | – | – | –
C[C@]12CCC(=O)C=C1CC[C@@H]1[C@@H]2CC[C@]2(C)C(=O)C(Br)C[C@@H]12 (stereo not given in full) | 2650 nM | – | – | –
C[C@]12CC[C@H](O)CC1=CC[C@@H]1[C@@H]2CC[C@]2(C)C(=O)[C@@H](n3ccnc3)C[C@@H]12 | – | – | 5.481 | –
C[C@]12CCC(=O)C=C1C(=O)C[C@@H]1[C@@H]2CC[C@]2(C)C(=O)CC[C@@H]12 | 1100 nM and 280 nM | 280 | – | –
C[C@]12CCC(=O)C=C1C=C(Cc1ccc(N)cc1)[C@@H]1[C@@H]2CC[C@]2(C)C(=O)CC[C@@H]12 | 490 nM | 87.9 | – | –
C[C@]12CCC(=O)C(O)=C1CC[C@@H]1[C@@H]2CC[C@]2(C)C(=O)CC[C@@H]12 [FORMESTANE] | – | 562 | – | 13.35
